Where two headings read alike, the source gives them in different places.
Assays:
[1] = test system: keratinocytes of the HaCaT line; assay: Production of reactive oxygen species (ROS) induced by UVA in HaCaT keratinocytes (DHR123 or DCFH-DA probe); format: cell-based; settings: for EC50: Homo sapiens, light or radiation study, 24 h incubation, UVA exposure, concentration allowing 50% photoprotection (500 μM vitamin C = 100%); for ROS production decrease: UVA-induced ROS
Description: The decrease of the production of reactive oxygen species in keratinocytes of the HaCaT line is evaluated by detection, using the Dihydrorhodamine 123 (DHR123) probe or using Dichloro-dihydro-fluorescein diacetate (DCFH-DA) probe, the ROS production is induced by exposition to UVA after 24 h of incubation in the presence of the compounds to be tested. The DHR123 and DCFH-DA probes are indicators of the presence of reactive oxygen species (ROS). HaCaT keratinocytes in monolayer culture are placed in the presence of a solution of a compound to be tested at various concentrations (0.4-200 μM) in the medium. After 24 h of incubation, the cells are exposed to UVA, then incubated with the DHR123 probe or DCFH-DA probe for 1 h. The fluorescence of the probe is then measured. A viability test is carried out in parallel in order to discard the cytotoxic compounds. In parallel, the keratinocytes are incubated with vitamin C acting as a positive control and a standard: an incubation with 500 μM of vitamin C corresponds to 100% photoprotection. The dose-effect curves of the fluorescence detected as a function of the concentration of compounds (to be tested) present in the medium make it possible to calculate the effective dose EC50 which corresponds to the concentration of compound (to be tested) that allows 50% photoprotection of the keratinocytes.

[2] = test system: AMPK pathway (pACC, phosphorylated Acetyl-CoA Carboxylase) in NHEK cells; assay: Evaluation on AMPK pathway in NHEK cells by pACC immunolabeling; format: cell-based, Human; settings: for % control (labeling % of the pACC compared to the control brought back to 100%) / global increase of the pACC labelling: NHEK cells, Compound 4 at 10 μM; for % control (labeling % of the pACC compared to the control brought back to 100%): 48 hours incubation, n=3, AICAR at 500 μM (0.5% DMSO); for global increase of the pACC labelling: AICAR reference at 500 μM
Description: Evaluation of the effect of compound 4 on the AMPK pathway in NHEK cells (Normal Human Epidermal Keratinocytes) by analysis of the pACC (Acetyl-CoA Carboxylase) phosphorylated form expression. This effect is studied by fluorescent immunolabeling and image analysis.
Keratinocytes are seeded in 96-well microplates and grown for 24 hours in a culture medium. The medium is then replaced by the test medium and cells are grown for 24 supplementary hours. Finally, the medium is replaced by the test medium comprising or not (control) the tested compounds, the reference (AICAR) or the control solvent (0.1% or 0.5% DMSO) then the cells are incubated for 48 hours. All the test conditions were carried out with n=3.
After incubation, the immunolabeling is done. The results are expressed in labeling % of the pACC compared to the control brought back to 100%.

[3] = DCFH-DA probe, read-out: EC50- DCFH-DA
[4] = DHR123 probe, read-out: EC50 -DHR123

SMILES	EC50 [1, 3] [µM]	ROS production decrease [1]	activation of the AMPK route in normal human keratinocytes ([2]; 10 μM)	% control (labeling % of the pACC compared to the control brought back to 100%) [2] [%]	global increase of the pACC labelling [2] [%]	EC50 [1, 4] [µM]
COc1cc(/C=C/c2ccc(OC(C)=O)c(OC)c2)ccc1O [Compound 5]	29	Yes				
COc1cc(/C=C/c2ccc(OC)c(OC)c2)ccc1O [Compound 4]		Yes	capable to active the AMPK route	119	19	100
COc1ccc(/C=C/c2ccc(O)c(OC)c2)cc1 [Compound 1]	20	Yes				36
NC(=O)c1ncn([C@@H]2O[C@H](CO)[C@@H](O)[C@H]2O)c1N [AICAR, reference compound]				117	17	

From patent publication US11318079B2, “Polyhydroxylated (1-phenyl-2-phenyl) ethylene derivatives as an anti-ageing and photoprotective agent” (L'OREAL, priority 2015, dated 2022)
